Patent publication US20240084258A1, “METHOD FOR PREPARING BROWN ADIPOCYTE” (KYOTO PREFECTURAL PUBLIC UNIVERSITY CORPORATION, priority 2015, published 2024)

What was measured:
[1] = tested on: human dermal fibroblasts (HDFs)
Protocol: Human normal skin-derived fibroblast (human dermal fibroblasts; HDFs) were suspended in a normal medium (10% FBS-added Dulbecco's modified minimum essential medium; DMEM). This was seeded in a 12-well plate at a concentration of 3×10^4 cells/well and culturing was started at 5% CO2/95% humidified air, 37° C. The next day (day 0), the culture supernatant was removed by suction and a normal medium (group 1), an adipocyte induction medium (group 2), or an adipocyte induction medium (groups 3-8) added with ALK5 inhibitor II at concentration of 4 μM was added at 1 mL/well.
Once every 2 days, the medium was substituted by a fresh one. In groups 3-7, the cells were cultured in an adipocyte induction medium added with ALK5 inhibitor II only in the periods of Days 0-2, Days 0-4, Days 0-6, Days 0-8 and Days 0-10, respectively, and thereafter cultured in an adipocyte induction medium without addition of ALK5 inhibitor II. In group 8, the cells were cultured in an adipocyte induction medium added with ALK5 inhibitor II throughout the whole period of Days 0-14.

[2] = tested on: human dermal fibroblasts (HDFs); test: UCP1, CIDEA and KCNK3 gene mRNA by real time RT-PCR (Example 17); type: cell-based
Protocol: (Day −1). In the control (Ctrl) group, the culture supernatant of the next day (Day 0) was removed by suction and the cells were cultured in a normal medium up to day 14 while substituting the medium with a fresh one once every other day. In groups other than the control (Ctrl) group, the culture supernatant was removed by suction on day 0, and an adipocyte induction medium added with any of ALK5 inhibitor II (4 μM) and LY2157299 (8 μM) was added at 1 mL/well.
Thereafter, the cells were cultured in an adipocyte induction medium free of any compound of ALK5 inhibitor II and LY215799 during Day 9-Day 14. On day 14, the medium was removed by suction from the wells of all groups, and the cells were washed with PBS(−).

[3] = tested on: human dermal fibroblasts (HDFs); test: BODIPY, UCP1 and DAPI co-staining (Example 10); type: cell-based; details: D4476 2 μM in addition to T3 and Rosiglitazone, day 14, FIG. 10A, 10B
Protocol: (§1) The next day, the culture supernatant was removed by suction and, as described in the Figure, a normal medium, an adipocyte induction medium, or an adipocyte induction medium added with each low-molecular-weight compound and the like was added at 500 μL/well.
(§2) The adipocyte induction medium is a 10% FBS-added DMEM+MDI medium (10% FBS-added DMEM supplemented with 0.5 mM isobutylmethylxanthine (IBMX), 0.5 μM dexamethason and 1 μg/mL Insulin).
(§3) The concentrations of the additives are as follows: • T3: 1 nM • Rosiglitazone: 1 μM • D4476: 2 μM.
(§4) The culture medium was substituted by a fresh one every 3-4 days and the cells were cultured up to day 14.
The cells were fixed with 4% para-formaldehyde and washed with PBS(−).
Then, the cells were reacted in BODIPY 493/503 (Invitrogen)/PBS solution at room temperature for 5 min, washed 3 times with PBS and stained with DAPI. The cells were photographed at a magnification of 200 with a fluorescence microscope.

[4] = tested on: human dermal fibroblasts (HDFs); test: UCP1 gene mRNA by real time RT-PCR (Example 2); type: cell-based; details: induction medium + T3 + Rosiglitazone, D4476 2 μM, FSK 2 μM, PD0325901 1 μM, SB431542 2 μM, day 14, FIG. 2
Protocol: This was seeded in a 24-well plate at a concentration of 1×10^4 cells/well (day 0), and culturing was started at 5% CO2/95% humid air, 37° C. The next day, the culture supernatant was removed by suction and, as described in the Figure, a normal medium, an adipocyte induction medium, or an adipocyte induction medium added with each low-molecular compound and the like was added at 500 μL/well. […] The concentrations of the additives are as follows: • T3: 1 nM • Rosiglitazone: 1 μM • D4476: 2 μM • Pifithrin alpha [p53 inhibitor]: 5 μM • Forskolin (FSK): 2 μM • PD0325901: 1 μM • SB431542: 2 μM. The culture medium was substituted by a fresh one every 3-4 days and the cells were cultured up to day 14.

[5] = tested on: human dermal fibroblasts (HDFs); test: UCP1 mRNA response of induced cells to Isoproterenol or FSK stimulation (Example 3); type: cell-based; details: cells cultured 14 days in induction medium with D4476 in addition to T3 and Rosiglitazone; FIG. 3
Protocol: 10 μM Isoproterenol or FSK was added to these cells as described in the Figure. As a control, a group free of the addition was also prepared. After 5 hr, the culture medium was removed from each well by suction, the cells were washed with PBS(−) and total RNA was extracted from the cells with ISOGEN II. qRT-PCR was performed in the same manner as in Example 2. The mRNA level of UCP1 gene was quantified as a ratio to […] gene mRNA and calculated with the value of fibroblast cultured in the normal medium as 1.

[6] = tested on: human dermal fibroblasts (HDFs); test: Oil Red O staining (Example 9); type: cell-based; details: D4476 2 μM in addition to Rosiglitazone and T3, day 14, FIG. 9
Protocol: as §1, §2, §3, §4
The cells were washed 3 times with sterile distilled water, Oil Red O staining solution was added, and the mixture was incubated at room temperature for 15 min. Then the cells were washed with sterile distilled water and photographed at a magnification of 100 with a microscope.

[7] = ALK5 inhibitor II 4 μM or LY2157299 8 μM up to Day 9, day 14, FIG. 17

Row | Structure (SMILES) | staining intensity of UCP1 protein and staining positive cells ([1]; #6: ALK5 inhibitor II 4 μM for days 0-8, then 6 days without it) | UCP1 protein expression by immunostaining (conversion to brown adipocytes) ([1]; HDFs, ALK5 inhibitor II 4 μM in adipocyte induction medium, day 14, FIG. 14A, 14B) | UCP1 protein expression ([1]; other conditions cultured in the presence of ALK5 inhibitor II (in FIG. #2-5, 7, 8)) | CIDEA gene expression [2, 7] | KCNK3 gene expression [2, 7] | UCP1 gene expression [2, 7] | strength of induction of UCP1 gene expression, compared with LY2157299 ([2]; ALK5 inhibitor II 4 μM versus LY2157299 8 μM, day 14) | lipid droplets stained with Bodipy and UCP1 protein [3] | mRNA expression of UCP1 gene (conversion to brown adipocytes) [4] | responsiveness of induced cells to Isoproterenol or FSK stimuli [5] | Oil Red O staining [6]
1 | Cc1cccc(-c2n[nH]cc2-c2ccc3ncccc3n2)n1 [ALK5 Inhibitor II, 2-(3-(6-Methylpyridin-2-yl)-1H-pyrazol-4-yl)-1,5-naphthyridine] | the staining intensity of UCP1 protein was high and many staining positive cells were present | converted to brown adipocytes highly expressing UCP1 protein | High expression of UCP1 protein was also detected | induced into brown adipocytes expressing UCP1 gene, CIDEA gene and KCNK3 gene | induced into brown adipocytes expressing UCP1 gene, CIDEA gene and KCNK3 gene | induced into brown adipocytes expressing UCP1 gene, CIDEA gene and KCNK3 gene | more strongly induced | – | – | – | –
2 | NC(=O)c1ccc(-c2nc(-c3ccc4c(c3)OCCO4)c(-c3ccccn3)[nH]2)cc1 [D4476, 4-[4-(2,3-dihydro-1,4-benzodioxin-6-yl)-5-(2-pyridlnyl-)1H-imidazol-2-yl]-benzamide] | – | – | – | – | – | – | – | converted to brown adipocytes expressing lipid droplets stained with Bodipy and UCP1 protein | induced to brown adipocytes that express mRNA of UCP1 gene | brown adipocyte-like responsiveness | remarkable Oil Red O staining as compared to the control
